Data from patent US11000033B2, “Ketone or oxime compound, and herbicide” (NISSAN CHEMICAL CORPORATION, priority 2014, dated 2021).

What was measured:
Assay type in all cases: in vivo
[1] = test system: Echinochloa oryzacola Vasing.; test: Test Example 2: herbicidal activity, application during weed generation in submerged conditions (symbol A); settings: Table 23; application herbicide amount 320 g/ha; grade 0-5 by criteria of Test Example 1
In short: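 Read-out: herbicidal effect on each species rated on a visual scale 3 weeks after treatment. Plants were raised together from seed in flooded alluvial soil (4 cm water) at 25° C. to 30° C. and treated at one to two leaves by water-surface application of diluted emulsion.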

[2] = test system: Echinochloa crus-galli var. crus-galli; test: Test Example 3: herbicidal effect by foliage application, Wagner pot (symbol H); settings: application herbicide amount 320 g/ha
In short: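 Scoring took place 3 weeks after application, using fixed criteria. Plants had been raised from seed for 14 days at 25 to 30 °C in submerged alluvial soil before a diluted emulsion of the test compound was sprayed uniformly on the leaves.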

[3] = test system: directly sowed rice plant; test: Test Example 3: effect on crop by foliage application, Wagner pot (symbol b); settings: application herbicide amount 320 g/ha
In short: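 Greenhouse culture at 25–30 °C of seeded rice, Cyperus difformis, Leptochloa chinensis and Echinochloa crus-galli var. crus-galli, in alluvial soil held under 0.1–0.5 cm of water in a Wagner pot.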

Setaria viridis = test: Test Example 4: herbicidal effect by soil treatment (symbol G); settings: application herbicide amount 320 g/ha
In short: (§1)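 Seeds were sown in sterilized diluvial soil, covered with about 1.5 cm of soil, and the soil surface was sprayed with a water-diluted emulsion of the compound at a predetermined rate. Plants grew in a greenhouse at 25° C. to 30° C.; effects were scored visually 3 weeks after application.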

Lolium multiflorum Lam. = test: Test Example 4: herbicidal effect by soil treatment (symbol K)
In short: as §1

corn = test: Test Example 4: effect on crop by soil treatment (symbol c)
In short: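 Plants are raised in a greenhouse (25° C. to 30° C.) from spot-sown seed, which sits under about 1.5 cm of sterilized diluvial soil in a box shared with weed species.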

soybean = test: Test Example 4: effect on crop by soil treatment (symbol d)
In short: (§2)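 Crop seed is sown in spots together with several weed species in a box of sterilized diluvial soil. It is covered by about 1.5 cm of soil and kept in a greenhouse held between 25° C. and 30° C.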

Avena fatua = test: Test Example 5: herbicidal effect by foliage application, plastic box (symbol I); settings: 320 g/ha, 3 weeks after application
In short: (§3)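 Herbicide, formulated as an emulsion and diluted in water, is sprayed onto the aerial parts of 14-day seedlings. These were grown at 25° C. to 30° C. in sterilized diluvial soil; effects are graded after 3 weeks.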

wheat = test: Test Example 5: effect on crop by foliage application, plastic box (symbol e); settings: 320 g/ha, 3 weeks after application
In short: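 Greenhouse culture at 25° C. to 30° C. followed spot-like sowing into sterilized diluvial soil, with seed covered by roughly 1.5 cm of soil.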

rapeseed = test: Test Example 4: effect on crop by soil treatment (symbol g); settings: 320 g/ha
In short: as §2

Stellaria media = test: Test Example 5: herbicidal effect by foliage application, plastic box (symbol P); settings: 320 g/ha, 3 weeks after application
In short: as §3

[4] = application herbicide amount 320 g/ha

## CON=C(C)CC1CC(OC(=O)OC)=C(c2c(C)cc(C)cc2C)C1=O (stereo not shown) [1-014]
[1]
  Herbicidal effect grade, A: Echinochloa oryzacola Vasing.: 5 (Herbicidal ratio of 90% or more (almost completely withered))
[2]
  herbicidal effect on H (Echinochloa crus-galli var. crus-galli), grade 0-5: 5 (Herbicidal ratio of 90% or more (almost completely withered))
[3]
  effect on crop b (directly sowed rice plant), grade 0-5: 5 (Herbicidal ratio of 90% or more (almost completely withered))
Setaria viridis
  G (Setaria viridis) herbicidal effect grade: 3 (Herbicidal ratio of 40% or higher and lower than 70%)
Lolium multiflorum Lam.; [4]
  K (Lolium multiflorum Lam.) herbicidal effect grade: 5 (Herbicidal ratio of 90% or more (almost completely withered))
corn; [4]
  c (corn) effect on crop grade: 4 (Herbicidal ratio of 70% or higher and lower than 90%)
soybean; [4]
  d (soybean) effect on crop grade: 4 (Herbicidal ratio of 70% or higher and lower than 90%)
Avena fatua
  I: Avena fatua, herbicidal effect grade: 5 (Herbicidal ratio of 90% or more (almost completely withered))
wheat
  e: wheat, effect on crop grade: 5 (Herbicidal ratio of 90% or more (almost completely withered))

## CON=C(C)CC1CC(OC(=O)N2CCCCC2)=C(c2c(C)cc(C)cc2C)C1=O (stereo not shown) [1-151]
[1]
  Herbicidal effect grade, A: Echinochloa oryzacola Vasing.: 5 (Herbicidal ratio of 90% or more (almost completely withered))
[2]
  herbicidal effect on H (Echinochloa crus-galli var. crus-galli), grade 0-5: 4 (Herbicidal ratio of 70% or higher and lower than 90%)
[3]
  effect on crop b (directly sowed rice plant), grade 0-5: 5 (Herbicidal ratio of 90% or more (almost completely withered))
Lolium multiflorum Lam.; 320 g/ha
  K: Lolium multiflorum Lam., herbicidal effect grade: 5 (Herbicidal ratio of 90% or more (almost completely withered))
corn; 320 g/ha
  c: corn, effect grade on crop: 0 (Herbicidal ratio of 5% or lower (almost no effect))
soybean; 320 g/ha
  d: soybean, effect grade on crop: 0 (Herbicidal ratio of 5% or lower (almost no effect))
rapeseed
  g: rapeseed, effect grade on crop: 0 (Herbicidal ratio of 5% or lower (almost no effect))
Avena fatua
  I: Avena fatua, herbicidal effect (criteria 0-5): 5 (Herbicidal ratio of 90% or more (almost completely withered))
Stellaria media
  P: Stellaria media, herbicidal effect (criteria 0-5): 0 (Herbicidal ratio of 5% or lower (almost no effect))
wheat
  e: wheat, effect on crop (criteria 0-5): 3 (Herbicidal ratio of 40% or higher and lower than 70%)

## CCC(=O)CCC1CC(OC)=C(c2c(C)cc(C)cc2C)C1=O (stereo not shown) [5-002]
[1]
  Herbicidal effect grade, A: Echinochloa oryzacola Vasing.: 0 (Herbicidal ratio of 5% or lower (almost no effect))
[2]
  herbicidal effect on H (Echinochloa crus-galli var. crus-galli), grade 0-5: 0 (Herbicidal ratio of 5% or lower (almost no effect))
[3]
  effect on crop b (directly sowed rice plant), grade 0-5: 0 (Herbicidal ratio of 5% or lower (almost no effect))
Setaria viridis
  G: Setaria viridis, herbicidal effect grade: 0 (Herbicidal ratio of 5% or lower (almost no effect))
Lolium multiflorum Lam.; [4]
  K: Lolium multiflorum Lam., herbicidal effect grade: 0 (Herbicidal ratio of 5% or lower (almost no effect))
corn; [4]
  c: corn, effect on crop grade: 0 (Herbicidal ratio of 5% or lower (almost no effect))
soybean; [4]
  d: soybean, effect on crop grade: 0 (Herbicidal ratio of 5% or lower (almost no effect))
Avena fatua
  I: Avena fatua, herbicidal effect grade: 0 (Herbicidal ratio of 5% or lower (almost no effect))
wheat
  e: wheat, effect on crop grade: 0 (Herbicidal ratio of 5% or lower (almost no effect))

## CCc1cc(C)cc(C)c1C1=C(O)CC(CC(C)=NOC)C1=O (stereo not shown) [6-007]
[1]
  Herbicidal effect grade, A: Echinochloa oryzacola Vasing.: 5 (Herbicidal ratio of 90% or more (almost completely withered))
[2]
  herbicidal effect on H (Echinochloa crus-galli var. crus-galli), grade 0-5: 5 (Herbicidal ratio of 90% or more (almost completely withered))
[3]
  effect on crop b (directly sowed rice plant), grade 0-5: 5 (Herbicidal ratio of 90% or more (almost completely withered))
Setaria viridis
  G: Setaria viridis, herbicidal effect grade: 5 (Herbicidal ratio of 90% or more (almost completely withered))
Lolium multiflorum Lam.; [4]
  K: Lolium multiflorum Lam., herbicidal effect grade: 5 (Herbicidal ratio of 90% or more (almost completely withered))
corn; [4]
  c: corn, effect on crop grade: 5 (Herbicidal ratio of 90% or more (almost completely withered))
soybean; [4]
  d: soybean, effect on crop grade: 0 (Herbicidal ratio of 5% or lower (almost no effect))
Avena fatua
  I: Avena fatua, herbicidal effect grade: 3 (Herbicidal ratio of 40% or higher and lower than 70%)
wheat
  e: wheat, effect on crop grade: 5 (Herbicidal ratio of 90% or more (almost completely withered))
